According to patent publication US8039430B2 (University of Wollongong, priority 2005, dated 2011):
Each block holds one compound with its values, some of them ahead of it.

Experiments:
[1] = system: Staphylococcus aureus (ATCC 6538P); assay: Antibacterial assay (MIC), Staphylococcus aureus ATCC 6538P, Luria Broth, Example 1; assay type: cell-based; settings: Staphylococcus aureus, ATCC6538P; Example 1 compounds; S. aureus ATCC 6538P; 24 hrs, 37° C.; range if at least two of three values fell within it; read-out: Sa (minimum inhibitory concentration)
Protocol: (§1) Antibacterial Assay Method for Staphylococcus aureus (ATCC 6538P) and Enterococcus faecium
Staphylococcus aureus (ATCC 6538P)
(§2) Compounds are accurately weighed out (between approx. 1-2 mg) and dissolved in either 10% methanol/water (v/v) or 100% DMSO to a final stock concentration of 5 mg/ml.
(§3) Compounds are then diluted 1/10 in H2O to a test conc of 500 ug/ml ready for immediate use, or storage at −20° C.
(§4) Grow up an o/n starter culture of Staphylococcus aureus and each VRE strain by diluting previous culture (stored at 4° C.) 1/1000 into −50 mls Luria Broth (LB) for S. aureus or Enterococossel Broth (EB) for the VRE strains.
(§5) Incubate o/n at 37° C.+shaking. • A glycerol stock (0.6 mls bacterial culture, 0.3 mls glycerol) of each strain is kept at −80° C. if needed. Assay Set Up:
(§6) In a 96well round bottom plate add 50 ul LB/well for the S. aureus plate and add 50 ul EB/well for the VRE plates.
(§7) Add 50 ul of compound dilution (500 ug/ml test conc) to each of three top row wells (ie: tested in triplicate) and dilute 1 in 2 from the top row to the bottom row.
(§8) After the compound dilution, add to each well 50 ul of a 1/1000 dilution of the appropriate overnight bacterial culture, either S. aureus or the different VRE strains.
(§9) Plates are incubated at 37° C. on a slowly rotating plate incubator. • test concentrations are (in ug/ml) 125, 62.5, 31.25, 15.6, 7.8, 3.9, 1.9, 0.98 • final DMSO concentration in the first row of wells of the assay is 2.5% • Vancomycin is included in the assay (in triplicate) at a starting test concentration of 5 ug/ml for S. aureus and 125 ug/ml for the VRE strains Reading Results of Assay:
(§10) After incubation for 24 hrs the plates are removed and read. Inhibition of bacterial growth is indicated by lack of bacterial pellet or a clear well. In the VRE plates bacterial growth is indicated by black coloured media (EB) as well as a bacterial pellet.
(§11) Untreated control wells are included in the assay to check they all contain bacterial pellets. Uninoculated untreated control wells are included to check they all contain clear medium.
(§12) The plates are analysed for MIC and the results tabulated.

[2] = system: #243 E. faecium van B ST17; assay: Antibacterial assay (MIC), VRE strain #243, Enterococossel Broth, Example 1; assay type: cell-based, Enterococcus faecium; settings: Enterococcus faecium; Example 1 compounds; VRE #243 E. faecium van B; 24 hrs, 37° C.; read-out: 243 (minimum inhibitory concentration)
Protocol: as §1
(§13) VRE strains: #243 E. faecium van B ST17 #449 E. faecium van B ST17
as §2, §3, §4, §5, §6, §7, §8, §9, §10, §11, §12

[3] = system: #449 E. faecium van B ST17; assay: Antibacterial assay (MIC), VRE strain #449, Enterococossel Broth, Example 1; assay type: cell-based, Enterococcus faecium; settings: Enterococcus faecium; Example 1 compounds; VRE #449 E. faecium van B; 24 hrs, 37° C.; read-out: 449 (minimum inhibitory concentration)
Protocol: as §1, §13, §2, §3, §4, §5, §6, §7, §8, §9, §10, §11, §12

[4] = system: #820 E. faecium van A ST17; assay: Antibacterial assay (MIC), VRE strain #820, Enterococossel Broth, Example 1; assay type: cell-based, Enterococcus faecium; settings: Enterococcus faecium; Example 1 compounds; VRE #820 E. faecium van A; 24 hrs, 37° C.; read-out: 820 (minimum inhibitory concentration)
Protocol: as §1
(§14) #820 E. faecium van A ST17 #987 E. faecium van B ST39
as §2, §3, §4, §5, §6, §7, §8, §9, §10, §11, §12

[5] = system: #987 E. faecium van B ST39; assay: Antibacterial assay (MIC), VRE strain #987, Enterococossel Broth, Example 1; assay type: cell-based, Enterococcus faecium; settings: Enterococcus faecium; Example 1 compounds; VRE #987 E. faecium van B; 24 hrs, 37° C.; read-out: 987 (minimum inhibitory concentration)
Protocol: as §1, §14, §2, §3, §4, §5, §6, §7, §8, §9, §10, §11, §12

SMILES: C=CC[C@H](NC(=O)[C@@H](CCCNC(=N)N)NC(=O)[C@@H](CCCCN)NC(=O)COc1ccc2ccccc2c1-c1c(OCC2CCC2)ccc2ccccc12)C(=O)OCc1ccccc1.Cl.Cl (atropisomer, axis not shown) [Compound 24]
MIC [1]: 0.99 to 15.6 µg/mL
MIC [2]: 15.7 to 62.5 µg/mL
MIC [3]: 15.7 to 62.5 µg/mL
MIC [4]: 15.7 to 62.5 µg/mL
MIC [5]: 15.7 to 62.5 µg/mL

SMILES: C=CC[C@H](NC(=O)[C@@H](CCCNC(=N)N)NC(=O)[C@@H](CCCCN)NC(=O)COc1ccc2ccccc2c1-c1c(OCC(C)C)ccc2ccccc12)C(=O)OCc1ccccc1.Cl.Cl (atropisomer, axis not shown) [Compound 25]
MIC [1]: 0.99 to 15.6 µg/mL
MIC [2]: 15.7 to 62.5 µg/mL
MIC [3]: 15.7 to 62.5 µg/mL
MIC [4]: 15.7 to 62.5 µg/mL
MIC [5]: 15.7 to 62.5 µg/mL

SMILES: C=CC[C@H](NC(=O)[C@@H](CCCNC(=N)N)NC(=O)[C@@H](CCCCN)NC(=O)COc1ccc2ccccc2c1-c1c(OCCCCC)ccc2ccccc12)C(=O)OCc1ccccc1.Cl.Cl (atropisomer, axis not shown) [Compound 26]
MIC [1]: 0.99 to 15.6 µg/mL
MIC [2]: 15.7 to 62.5 µg/mL
MIC [3]: 15.7 to 62.5 µg/mL
MIC [4]: 15.7 to 62.5 µg/mL
MIC [5]: 15.7 to 62.5 µg/mL

SMILES: CC(C)C[C@H](NC(=O)[C@@H](CCCNC(=N)N)NC(=O)[C@@H](CCCCN)NC(=O)COc1ccc2ccccc2c1-c1c(OCCc2ccccc2)ccc2ccccc12)C(=O)OCc1ccccc1.Cl.Cl (atropisomer, axis not shown) [Compound 28]
MIC [1]: 0.99 to 15.6 µg/mL
MIC [2]: 15.7 to 62.5 µg/mL
MIC [3]: 15.7 to 62.5 µg/mL
MIC [4]: 15.7 to 62.5 µg/mL
MIC [5]: 15.7 to 62.5 µg/mL

SMILES: C=CC[C@H](NC(=O)[C@@H](CCCNC(=N)N)NC(=O)[C@@H](CCCCN)NC(=O)COc1ccc2ccccc2c1-c1c(OCCC(C)C)ccc2ccccc12)C(=O)OCc1ccccc1.Cl.Cl (atropisomer, axis not shown) [Compound 29]
MIC [1]: 0.99 to 15.6 µg/mL
MIC [2]: 15.7 to 62.5 µg/mL
MIC [3]: 0.99 to 15.6 µg/mL
MIC [4]: 0.99 to 15.6 µg/mL
MIC [5]: 15.7 to 62.5 µg/mL

SMILES: Cl.Cl.NCCCC[C@@H](NC(=O)CCCOc1ccc2ccccc2c1-c1c(OCCCC(=O)N[C@H](CCCCN)C(=O)OCc2ccccc2)ccc2ccccc12)C(=O)OCc1ccccc1 (atropisomer, axis not shown) [Compound 34]
MIC [1]: 0.99 to 15.6 µg/mL
MIC [2]: > 62.6 µg/mL
MIC [3]: 15.7 to 62.5 µg/mL
MIC [4]: 15.7 to 62.5 µg/mL
MIC [5]: > 62.6 µg/mL

SMILES: Cl.Cl.NCCCC[C@@H](NC(=O)CCCOc1ccc2ccccc2c1-c1c(OCCCC(=O)N[C@H](CCCCN)C(=O)OCc2cccc3ccccc23)ccc2ccccc12)C(=O)OCc1cccc2ccccc12 (atropisomer, axis not shown) [Compound 35]
MIC [1]: 0.99 to 15.6 µg/mL
MIC [2]: > 62.6 µg/mL
MIC [3]: > 62.6 µg/mL
MIC [4]: 15.7 to 62.5 µg/mL
MIC [5]: > 62.6 µg/mL

SMILES: Cl.Cl.N=C(N)NCCCC[C@@H](NC(=O)CCCOc1ccc2ccccc2c1-c1c(OCCCC(=O)N[C@H](CCCCNC(=N)N)C(=O)OCc2ccccc2)ccc2ccccc12)C(=O)OCc1ccccc1 (atropisomer, axis not shown) [Compound 39]
MIC [1]: 0.99 to 15.6 µg/mL
MIC [2]: > 62.6 µg/mL
MIC [3]: 15.7 to 62.5 µg/mL
MIC [4]: 15.7 to 62.5 µg/mL
MIC [5]: > 62.6 µg/mL

SMILES: Cl.Cl.N=C(N)NCCCC[C@@H](NC(=O)CCCOc1ccc2ccccc2c1-c1c(OCCCC(=O)N[C@H](CCCCNC(=N)N)C(=O)Oc2cccc3ccccc23)ccc2ccccc12)C(=O)Oc1cccc2ccccc12 (atropisomer, axis not shown) [Compound 40]
MIC [1]: 0.99 to 15.6 µg/mL
MIC [2]: > 62.6 µg/mL
MIC [3]: > 62.6 µg/mL
MIC [4]: 15.7 to 62.5 µg/mL
MIC [5]: > 62.6 µg/mL

SMILES: C=CCOc1ccc2ccccc2c1-c1c(OCC(=O)N[C@H](CCCN)C(=O)Nc2cccc(C(=O)OC)c2)ccc2ccccc12.Cl (atropisomer, axis not shown) [Compound 41]
MIC [1]: 0.99 to 15.6 µg/mL
MIC [2]: > 62.6 µg/mL
MIC [3]: > 62.6 µg/mL
MIC [4]: > 62.6 µg/mL
MIC [5]: > 62.6 µg/mL

SMILES: C=CCOc1ccc2ccccc2c1-c1c(OCC(=O)N[C@H](CCCN)C(=O)Nc2cccc(C(=O)OCc3ccccc3)c2)ccc2ccccc12.Cl (atropisomer, axis not shown) [Compound 42]
MIC [1]: 15.7 to 62.5 µg/mL
MIC [2]: > 62.6 µg/mL
MIC [3]: > 62.6 µg/mL
MIC [4]: > 62.6 µg/mL
MIC [5]: > 62.6 µg/mL

Continued, values first:

MIC [1]: 0.99 to 15.6 µg/mL
MIC [2]: 15.7 to 62.5 µg/mL
MIC [3]: 15.7 to 62.5 µg/mL
MIC [4]: 15.7 to 62.5 µg/mL
MIC [5]: 15.7 to 62.5 µg/mL
SMILES: CC(C)CCOc1ccc2ccccc2c1-c1c(OCC(=O)N[C@H](CCCCN)C(=O)N[C@H](CCCNC(=N)N)C(=O)N[C@@H](CC(C)C)C(=O)OCCc2ccccc2)ccc2ccccc12.Cl.Cl (atropisomer, axis not shown) [Compound 13]

MIC [1]: 0.99 to 15.6 µg/mL
MIC [2]: 15.7 to 62.5 µg/mL
MIC [3]: 15.7 to 62.5 µg/mL
MIC [4]: 15.7 to 62.5 µg/mL
MIC [5]: > 62.6 µg/mL
SMILES: CC(C)CCOc1ccc2ccccc2c1-c1c(OCC(=O)N[C@H](CCCCN)C(=O)N[C@H](CCCNC(=N)N)C(=O)N[C@@H](CC(C)C)C(=O)NCc2ccccc2)ccc2ccccc12.Cl.Cl (atropisomer, axis not shown) [Compound 14]

MIC [1]: 0.99 to 15.6 µg/mL
MIC [2]: 15.7 to 62.5 µg/mL
MIC [3]: 15.7 to 62.5 µg/mL
MIC [4]: 15.7 to 62.5 µg/mL
MIC [5]: 15.7 to 62.5 µg/mL
SMILES: CC(C)CCOc1ccc2ccccc2c1-c1c(OCC(=O)N[C@H](CCCCN)C(=O)N[C@H](CCCNC(=N)N)C(=O)N[C@@H](CC(C)C)c2ncc(Cc3ccccc3)o2)ccc2ccccc12.Cl.Cl (atropisomer, axis not shown) [Compound 18]

MIC [1]: 0.99 to 15.6 µg/mL
MIC [2]: 15.7 to 62.5 µg/mL
MIC [3]: 15.7 to 62.5 µg/mL
MIC [4]: 15.7 to 62.5 µg/mL
MIC [5]: 15.7 to 62.5 µg/mL
SMILES: CC(C)CCOc1ccc2ccccc2c1-c1c(OCC(=O)N[C@H](CCCCN)C(=O)N[C@H](CCCNC(=N)N)C(=O)N[C@@H](Cc2ccccc2)C(=O)OCc2ccccc2)ccc2ccccc12.Cl.Cl (atropisomer, axis not shown) [Compound 19]

MIC [1]: 0.99 to 15.6 µg/mL
MIC [2]: 15.7 to 62.5 µg/mL
MIC [3]: 15.7 to 62.5 µg/mL
MIC [4]: 15.7 to 62.5 µg/mL
MIC [5]: 15.7 to 62.5 µg/mL
SMILES: CC(C)CCOc1ccc2ccccc2c1-c1c(OCC(=O)N[C@H](CCCCN)C(=O)N[C@H](CCCNC(=N)N)C(=O)NC2(C(=O)OCc3ccccc3)CCCC2)ccc2ccccc12.Cl.Cl (atropisomer, axis not shown) [Compound 20]

MIC [1]: 0.99 to 15.6 µg/mL
MIC [2]: 15.7 to 62.5 µg/mL
MIC [3]: 15.7 to 62.5 µg/mL
MIC [4]: 15.7 to 62.5 µg/mL
MIC [5]: 15.7 to 62.5 µg/mL
SMILES: C=CCOc1ccc2ccccc2c1-c1c(OCC(=O)N[C@H](CCCCN)C(=O)N[C@H](CCCNC(=N)N)C(=O)N[C@@H](CC(C)C)C(=O)OCc2ccccc2)ccc2ccccc12.Cl.Cl (atropisomer, axis not shown) [Compound 22]

MIC [1]: 0.99 to 15.6 µg/mL
MIC [2]: 15.7 to 62.5 µg/mL
MIC [3]: 15.7 to 62.5 µg/mL
MIC [4]: 15.7 to 62.5 µg/mL
MIC [5]: 15.7 to 62.5 µg/mL
SMILES: C=CC[C@H](NC(=O)[C@@H](CCCNC(=N)N)NC(=O)[C@@H](CCCCN)NC(=O)COc1ccc2ccccc2c1-c1c(OCC2CCCCC2)ccc2ccccc12)C(=O)OCc1ccccc1.Cl.Cl (atropisomer, axis not shown) [Compound 23]
